Measured values reported in patent US9173875B2, “Treatment for nicotine-induced lung disease using peroxisome proliferator-activated receptor gamma agonists” (Los Angeles Biomedical Research Institute at Harbor-UCLA …, priority 2006, dated 2015).

Experiments:
ATII cells [1] = test: Western analysis of CCT-α and SP-B in ATII cells after in utero nicotine; type: in vivo, Sprague-Dawley rat
Experimental: Pathogen-free timed (embryonic day 0=day of mating) pregnant Sprague-Dawley rats (200-250 g body wt) were obtained from Charles River (Hollister, Calif.) at embryonic day 3 and allowed to acclimatize until embryonic day 6. […] The fetuses were extracted by cesarean section, and the lungs were snap frozen for later analysis or processed for ATII cell or fibroblast culture. […] Louis, Mo.; 0.25 mg/kg). All studies were approved by the Los Angeles Biomedical Research Institute Institutional Review Board and were conducted in accordance with the National Institutes of Health Guide for the Care and Use of Laboratory Animals. Protein extraction and Western blot analysis for SP-B and choline phosphate cytidylyltransferase-α (CCT-α) were performed using standard methods. […] Chemicon) overnight at 4° C. The antibody for CCT-α (1:2,000 dilution) was a kind gift from Dr. […] (University of Iowa, Iowa City, Iowa). […] The density of the SP-B and CCT-α bands was quantified using a scanning densitometer (Eagle Eye, Stratagene).

fetal ATII cells = test: Ex vivo ATII cell proliferation assay (tetrazolium dye) after in utero nicotine; design: species or system Sprague-Dawley rat; conditions: nicotine 1 mg/kg in utero; vs control, P<0.05, n=6
Experimental: Pathogen-free timed (embryonic day 0=day of mating) pregnant Sprague-Dawley rats (200-250 g body wt) were obtained from Charles River (Hollister, Calif.) at embryonic day 3 and allowed to acclimatize until embryonic day 6. […] The fetuses were extracted by cesarean section, and the lungs were snap frozen for later analysis or processed for ATII cell or fibroblast culture. […] Louis, Mo.; 0.25 mg/kg). All studies were approved by the Los Angeles Biomedical Research Institute Institutional Review Board and were conducted in accordance with the National Institutes of Health Guide for the Care and Use of Laboratory Animals. ATII cells were isolated using differential adherence in monolayer culture, as described previously (Battenburg et al. (1990) Biochim. Biophys. Acta 960: 441-456). Briefly, three to five […] used per preparation. The fetuses were delivered via cesarean section, and fetal lungs were placed in Hanks' balanced salt solution without calcium and magnesium. […] A Teflon stirring bar was used to further dissociate the lungs by mechanical disruption of the tissue during incubation in a 37° C. water bath. After the tissue was dispersed into a unicellular suspension, the cells were pelleted at 500 g for 10 min at room temperature in a 50-ml polystyrene centrifuge tube. […] The cell suspension was then added to 75-cm^2 (T-75) culture flasks for 30-60 min to allow for differential adherence of lung fibroblasts. The unattached cells were then transferred to another T-75 culture flask for an additional 60 min. After this second culture period, the medium and nonadherent cells were removed from the flask and diluted with 1 vol of culture medium. This diluted suspension was cultured overnight in a T-75 culture flask at 37° C. in a CO2 incubator to allow the ATII cells to adhere. […] According to the manufacturer's protocol, cell proliferation was determined by the tetrazolium dye assay, which is based on the conversion of a tetrazolium salt to a red formazan product by living cells (Cell Proliferation Assay, Promega).

WI38 cells [2] = test system: WI38 cells
Experimental: Lipogenic and myogenic status of cultured WI38 cells was assessed by simultaneous staining for lipid droplets and -SMA. Lipids were stained using oil red 0 staining, and -SMA expression was assessed by using anti-SMA (cat. no. A2547, 1:1,000, mouse monoclonal IgG2, Sigma) primary antibody. […] At the end of the experimental period, slides were fixed in freshly prepared 4% paraformaldehyde. Fixed slides were washed in PBS, blocked with 3% normal goat serum (Jackson Immunoresearch Lab) in PBS for 30 min at room temperature to block nonspecific binding, and then incubated in primary antibody overnight at 4° C. Secondary biotinylated anti-mouse IgG2 was used at 1:200 dilution for 30 min. The slides were then washed 3× with PBS and with double-distilled water 2× and were then incubated with oil red 0 (Sigma) for 15-30 min. Slides were rinsed 3× for 5 min and then mounted and coverslipped with Vestashield mounting medium with 4′,6′-diamidino-2-phenylindole (Vector Laboratories) visualization under a fluorescence microscope.

fetal rat lung explants = test: In vitro ATII cell proliferation in lung explants (PCNA and SP-C labeling); type: cell-based; conditions: nicotine 24 h; P<0.05, n=4
Experimental: Explants derived from three to five litters of rats were used for each experiment during the course of the studies. Lungs were harvested from fetal rats under sterile conditions. The lung tissue was chopped into −1-mm cubes and incubated in 0.5 ml of Waymouth's MB-252/1 medium containing penicillin (100 U/ml)-streptomycin (100 U/ml) and Fungizone (2.5 μg/ml) in six-well plates while rocking on an oscillating platform (3 cycles/min) in 5% CO2-95% air at 37° C. The explants were allowed to attach for 1-2 h.
Cultured ATII cells or explants were treated with nicotine under various experimental conditions (see below), and cell proliferation was determined by Cell Proliferation Assay (Promega) or dual PCNA and SP-C labeling, respectively (see above).

ATII cells [3] = test system: ATII cells
Experimental: (§1) Isolated ATII cells were cultured in DMEM+10% FBS in 6- and 96-well plates, 100-mm dishes, and T-75 flasks, as needed, and maintained at 37° C. in a humidified incubator containing 5% CO2-95% air. At 80-90% confluence, cells were processed for cell proliferation, differentiation, and metabolic studies (see below).
Briefly, [1,2-^13C2]glucose was purchased with >99% enrichment for the specified carbon positions from Isotech (Miamisburg, Ohio). Lung ATII cells were isolated from embryonic day 20 pups from specified treatment groups and cultured in T-75 tissue culture flasks. […] The [^13C]glucose label is readily incorporated into various metabolites in mammalian cells, including ribonucleic acid (through ribose synthesis), lactate (through glycolysis), glutamate (through the tricarboxylic acid cycle), and palmitate (through the formation of acetyl-CoA). As the molecular weight (atomic mass unit) of these molecules increases on incorporation of the heavier ^13C atoms derived from [1,2,^13C2]glucose, they can be separated and quantitatively analyzed by gas chromatography-mass spectrometry (MS) on the basis of changes in their mass-to-charge ratios (m/z). […]
Fatty acids in the cell culture medium were extracted by saponification of the TRIzol cell extract after removal of the RNA-containing supernatant. […] Palmitate was monitored at ion cluster m/z 270. […]

WI38 cells [4] = test: Western blot of lipogenic and myogenic marker proteins in WI38 cells (nicotine with or without lipogenic pathway agonists); type: cell-based, human; conditions: nicotine 1×10^−9, 7 days
Experimental: The human embryonic cell line WI38 was obtained from American Type Culture Collection (Rockville, Md.). Cells were grown in MEM plus 10% FBS at 37° C. in six-well plates, four-well slides, and 60- and 100-mm culture dishes as needed.
Western blotting was performed with modifications of methods described previously (Ayad and Wong (1998) Crit. Care Med 26: 1277-1282). […] Equal amounts of the protein (25 μg) from the supernatant were dissolved in electrophoresis sample buffer and were subjected to SDS-PAGE (4-12% gradient) followed by electrophoretic transfer to a nitrocellulose membrane. Nonspecific binding of antibody was blocked by washing with Tris-buffered saline (TBS) containing 5% milk for 1 h. The blot was then subjected to two brief washes with TBS plus 0.5% Tween 20, incubated in TBS plus 0.1% Tween 20 and the specific primary antibodies (PPAR 1:2,000, Alexis Biochemicals, San Diego, Calif.; -SMA 1:50,000, Sigma; ADRP 1:3,000, a kind gift from Dr. Constantine Londos, National Institute of Diabetes and Digestive and Kidney Diseases) overnight at 4° C. Blots were then washed in TBS plus 0.1% Tween 20 and then incubated for 1 h in secondary antibody, washed, and developed with a chemiluminescent substrate (ECL; Amersham, Arlington Heights, Ill.) following the manufacturer's protocol.

[5] = test system: fetal alveolar type II (ATII) cells; test: In vivo ATII cell proliferation assay (PCNA and SP-C double labeling) after in utero nicotine; design: species or system Sprague-Dawley rat
WI38 cells [6] = test: Reversal experiment, immunofluorescence double staining (ADRP or lipid droplets and αSMA) in WI38 cells; type: cell-based, human
Experimental: Cells were grown in minimum essential medium (MEM) +10% fetal bovine serum at 37° C. in six-well plates, two well slides, and 60-mm and 100-mm culture dishes, as needed. […] Subsequently, the cells were treated with rosiglitazone (RGZ) (1×10^−5 M) (a PPARγ agonist), PTHrP (5×10^−7 M), or DBcAMP (1×10^−5 M) for 7 days, and the expression of PTHrP receptor, PPARγ, ADRP, calponin, and cSMA was determined by Western analysis and immunohistochemistry. Simultaneously, fibroblast function was characterized by measuring their capacity to take up triglycerides. Some experiments were performed in the presence of a specific PPARγ antagonist, GW9662. Medium containing fresh chemicals was added daily, and at the end of the experimental period the cells were processed as needed.
The lipogenic and myogenic status of cultured WI38 cells was assessed by simultaneous staining for either lipid droplets or ADRP and αSMA. Lipids were detected by using either oil red 0 staining or ADRP expression (polyclonal anti-ADRP 1:500), and αSMA expression was assessed by using anti-αSMA (1:1000, mouse monoclonal IgG2a, Sigma, catalog No. A2547) primary antibody. […] At the end of the experimental period, slides were fixed in freshly prepared 4% paraformaldehyde. […] Slides were rinsed three times for 5 min and then mounted and visualized under a fluorescence microscope.

ATII cells [7] = test: Phospholipid synthesis ([3H]choline incorporation) by ATII cells treated in vitro; type: cell-based, rat; conditions: nicotine 1×10^−9 M, 24 h, in vitro
Experimental: as §1
Incorporation of [methyl-3H]choline chloride (NEN Dupont) into saturated phosphatidylcholine was determined in monolayers of cultured explants and ATII cells. […] After incubation, explants and cells were washed three times with ice-cold PBS. The explants and the scraped cells were thoroughly homogenized, and the cellular lipids were extracted with chloroform-methanol (2:1) (Bligh and Dyer (1959) Can. J. Biochem. Physiol., 37: 911-917). The organic phase was dried under a stream of nitrogen at 60° C., resuspended in 0.5 ml of carbon tetrachloride containing 3.5 mg of osmium tetroxide, and left at room temperature for 15 min. The reaction mixture was redried under nitrogen and resuspended in 70 μl of chloroform-methanol (9:1, vol/vol). The lipid extracts were transferred to silica gel plates (Kodak, Rochester, N.Y.) and developed in a chloroform-methanolwater (65:25:4) solvent system. Pure dipalmitoyl phosphatidylcholine was used as the chromatographic standard. The developed plates were stained with bromothymol blue, blotted, and vacuum dried for 5 min at 90° C. Chromatogram spots corresponding to the migration of saturated phosphatidylcholine were scraped from the plates and counted by liquid scintillation spectrometry. The amounts of [methyl^3H]choline chloride incorporated into saturated phosphatidylcholine were expressed as disintegrations per minute per milligram of protein.

ATII cells [8] = test: Western analysis of CCT-α and SP-B in ATII cells treated in vitro; type: cell-based, rat
Experimental: Protein extraction and Western blot analysis for SP-B and choline phosphate cytidylyltransferase-α (CCT-α) were performed using standard methods. […] Equal amounts of the protein from the supernatant were dissolved in electrophoresis sample buffer and subjected to SDS-polyacrylamide (4-12% gradient) gel electrophoresis followed by electrophoretic transfer to a nitrocellulose membrane. The membrane was blocked with 5% milk in 1× Tris-buffered saline containing 0.1% Tween 20 for 1 h and then incubated with rabbit anti-human SP-B polyclonal antibody (1:1,000 dilution; Chemicon) overnight at 4° C. The antibody for CCT-α (1:2,000 dilution) was a kind gift from Dr. Mallampalli (University of Iowa, Iowa City, Iowa). Subsequently, the membrane was washed with 1× Tris-buffered saline+0.1% Tween 20 and incubated with a 1:3,000 dilution of anti-rabbit horseradish peroxidase-linked whole antibody immunoglobulin G (Amersham, Arlington Heights, Ill.) for 1 h at room temperature, washed again, and developed with a chemiluminescent substrate (ECL, Amersham) following the manufacturer's protocol. The density of the SP-B and CCT-α bands was quantified using a scanning densitometer (Eagle Eye, Stratagene).

CN1CCCC1c1cccnc1 (centres unmarked) [nicotine]
steady-state SP-B protein level (ATII cells [1]; in utero nicotine, P<0.05, n=3): significantly increased | CCT-α protein expression (ATII cells [1]; in vivo nicotine exposure): significant increase | ATII cell proliferation, tetrazolium dye assay (fetal ATII cells): almost twofold increase | lipid droplet and α-SMA staining (WI38 cells [2]): decreased lipid staining and increased -SMA staining | ATII cell proliferation in lung explants (fetal rat lung explants): significantly increased | de novo palmitate synthesis or [13C]glucose labeling of acetyl-CoA (ATII cells [3]): did not result in a significant change | ribose synthesis via the oxidative or the nonoxidative pathway (ATII cells [3]): did not alter | change in ADRP protein level (WI38 cells [4]): −20±3% | change in PPAR protein level (WI38 cells [4]): −24±2% | change in PTHrP receptor protein level (WI38 cells [4]): −31±7% | change in α-SMA protein level (WI38 cells [4]): +100±5% | increase in alveolar type II cell proliferation vs control group ([5]; nicotine 1 mg/kg i.p. once daily to dam, e6 to e20): 2 fold | ATII cell proliferation (PCNA and SP-C staining) ([5]; nicotine 1 mg/kg in utero, P<0.05, n=4): almost twofold increase | ADRP, lipid droplet and αSMA staining (WI38 cells [6]): marked decreases in ADRP and lipid droplet staining and a marked increase in αSMA staining | choline incorporation (ATII cells [7]): significantly increased | SP-B expression (ATII cells [8]; direct nicotine treatment of cultured ATII cells): significant increase | CCT-α protein expression (ATII cells [8]; in vitro nicotine exposure): significant increase
